Reference: patent US12396997B2, “Methods of treatment with an iboga alkaloid” (priority 2022, dated 2025)

Legend:
[1] = test system: special operations veterans with history of TBI; assay: Predicted brain age from MRI with brain age model; format: in vivo, human; details: one-month post treatment; FIG. 9D
Excerpt: A predictive model of normal aging defined using machine learning in healthy individuals, based on magnetic resonance imaging-derived estimates of gray matter and white matter (Id.) was applied to the MRI images from the subjects enrolled in the study of Example 1. […] There was a significant reversal of brain age from baseline to one month after treatment. The mean decrease in brain age was 1.3 years (corrected p=0.03).
At baseline, the brain age estimate for the 24 subjects was 40.89 years. […] The average decrease in brain age from baseline one month after treatment was 1.4 years.

[2] = test system: N-methyl-D-aspartate, kappa and mu opioid, sigma-1 and -2, nicotinic acetylcholine, serotonin transporter, and dopamine transporter; details: literature; cited from earlier work
[3] = test system: special operations veterans with history of TBI; assay: Structural T1w MRI (FreeSurfer) regional volume and cortical thickness; format: in vivo, human
Method: Structural imaging of the brain was also conducted on some of the subjects of Example 1. Gray matter constitutes about 40% of the brain and white matter constitutes about 60% of the brain. Gray matter contains most of the brain's neuronal cell nodes, it is fully developed once a person reaches their 20's and interprets sensor information from various parts of the body. White matter is made up of bundles which connect various gray matter areas, it develops throughout the 20's and peaks in middle age. Typical metrics analyzed in anatomical (T1-weighted. “T1w”) imaging include volume and/or shape of nuclei (e.g. caudate), volume and/or shape of ventricles of the brain, and cortical thickness (mm). These metrics can be used to study normal and abnormal neuroanatomy and are primarily used to quantify gray matter. A tool called FreeSurfer was applied to images for a T1w structural analysis (volume, cortical thickness) to adjust for bias, remove non-brain matter, segments by tissue, parcels the brain into standardized regions, and provides measurements of those regions. FreeSurfer measurements of whole brain volume, volume by tissue (gray, white, CSF), estimated intracranial volume (ICV), subcortical gray matter volume, cortical volume by region were done. […] In particular, analysis was done to determine if there was any loss in gray matter volume or cortical thickness, whether there was a loss in white matter volume or an increase in presence of white matter […].
The fMRI images were also inspected to determine the difference in volume in regional areas of the brain from baseline to one month after treatment. FIG. 8A is a bar graph showing the effect size of a change in volume in 47 brain regions indicated along the x-axis. […] The fMRI images were also inspected for whole brain thickness at baseline and one month after treatment. […] FIG. 8B is a bar graph showing the effect size of a cortical thickness change for the brain regions indicated along the x-axis, from baseline to one month after treatment. […] The right and left parahippocampal gyrus are involved in visuospatial processing, including scene perception, navigation, and emotional contextualization. The left orbitofrontal gyrus is involved in impulse control and reward valuation. The left insular cortex is associated with both the affective-perceptual and cognitive-evaluative forms of empathy, as well as awareness of hunger, pain and fatigue. The left entorhinal cortex is a widespread network hub for memory, navigation, and perception of time.

[4] = test system: special operations veterans with history of TBI; assay: World Health Organization Disability Assessment Scale 2.0 (WHODAS 2.0); format: in vivo, human; details: for WHODAS 2.0 Subscale Self Care: baseline 5.2% ± 9.2%; for WHODAS 2.0 Subscale Mobility: baseline 14.7% ± 15.7%
Method: Thirty, male, navy seal or army special forces veterans, ages 33-58 years (mean 44.5 years), were enrolled. Of the 30 participants, 27 were Caucasian, 1 was Hispanic and 2 were Native American. Body mass index was between 17-35 kg/m^2.
With subjects in the fasting state, an intravenous infusion of 1 gram of magnesium sulfate was administered 1-2 hours prior to treatment. […] Medical staff (MD, RN, or EMT) were onsite at a ratio of at least 1 staff per 2 patients throughout treatment for monitoring and management, but no specific coaching or psychological support was provided during treatment.
Post treatment, each subject was assessed four days after treatment, one month after treatment, and, if willing, one year after treatment. The post-treatment assessments conducted at four days and at one month after treatment included neuropsychological testing, measures of PTSD, depression, anxiety, mystical experiences, functional imaging and EEG. Post-treatment assessments conducted at one year after treatment included PTSD, depression, and anxiety measures.
World Health Organization Disability Assessment Scale 2.0 (WHODAS 2.0) was used as a measure of function. WHODAS was used to assess the impact of health conditions across six life domains (cognition, mobility, self-care, interpersonal, life activities, and community participation) and it is sensitive to change over time (Gold, L. H., J. Am. Acad. Psychiatry Law 42, 9 (2014). Each item in the assessment is rated on a scale ranging from no problems to extreme problems (Üstün, T. B. et al., Measuring health and disability: Manual for WHO disability assessment schedule WHODAS 2.0. (World Health Organization, 2010)). To capture inter-individual variability in disability the WHODAS complex scoring method was used. Raw scores were converted to a metric ranging from 0 (no disability) to 100 (full disability), by calculating the ratio of the participant's score relative to the maximum possible score in each domain as well as to the total score (Id.). A score of 20%-39% was considered mild, 40%-59% was moderate, 60%-79% was moderate-severe and 80%-100% was severe. Scores from baseline were compared to scores from one-month post treatment.

[5] = effect size, Baseline vs One-Month
[6] = effect size, Baseline vs Post-Treatment

CCC1CC2CC3c4[nH]c5ccc(OC)cc5c4CCN(C2)C13 (stereo not drawn) [ibogaine]
Estimated brain age compared to aiTBS [1]: reducing in estimated brain age
Affinity for neurotransmitter receptors [2]: moderate-to-weak affinity
White matter hypointensities (corrected for cerebral white matter) ([3]; baseline vs. one month post treatment, two-tailed p = 0.0789): Two-tailed: no significant differences
Subcortical Gray Matter volume ([3]; baseline vs. one month post treatment, two-tailed p = 0.0949): Two-tailed: no significant differences
Total Gray Matter volume ([3]; baseline vs. one month post treatment, two-tailed p = 0.4755): Two-tailed: no significant differences
Cortical Gray Matter volume ([3]; baseline vs. one month post treatment, two-tailed p = 0.4847): Two-tailed: no significant differences
Right hemisphere mean thickness ([3]; one month after treatment vs baseline, two-tailed): no significant difference
Left hemisphere mean thickness ([3]; one month after treatment vs baseline, two-tailed p=0.7146): no significant difference
WHODAS 2.0 Subscale Self Care ([4]; One-Month, mean, SD 2.9%): 1.0% ±
WHODAS 2.0 Subscale Mobility ([4]; One-Month, mean, SD 3.3%): 1.3% ±
WHODAS 2.0 Subscale Cognition ([4]; One-Month, mean, SD 7.9%, baseline 36.1% ± 14.6%): 5.0% ±
WHODAS 2.0 Subscale Interpersonal ([4]; One-Month, mean, SD 9.5%, baseline 32.3% ± 20.4): 4.8% ±
WHODAS 2.0 Subscale Community Participation ([4]; One-Month, mean, SD 13.1%, baseline 35.6% ± 21.1%): 5.9% ±
WHODAS 2.0 Subscale Life Activities ([4]; One-Month, mean, SD 16.2%, baseline 41.1% ± 24.8%): 9.1% ±
WHODAS 2.0 Subscale Self Care ([4]; Post-Treatment, mean, SD 4.7%): 1.9% ±
WHODAS 2.0 Subscale Mobility ([4]; Post-Treatment, mean, SD 13.5%): 7.2% ±
WHODAS 2.0 Subscale Mobility, D [4, 5]: 0.83
WHODAS 2.0 Subscale Self Care, D [4, 5]: 0.51
WHODAS 2.0 Subscale Cognition, D [4, 6]: 0.96
WHODAS 2.0 Subscale Community Participation, D [4, 6]: 0.53
WHODAS 2.0 Subscale Interpersonal, D [4, 6]: 0.60
WHODAS 2.0 Subscale Life Activities, D [4, 6]: 0.48
WHODAS 2.0 Subscale Mobility, D [4, 6]: 0.53
WHODAS 2.0 Subscale Self Care, D [4, 6]: 0.37
